Experiments:
[1] = target: T1, Lysine-specific demethylase 4B (Homo sapiens, UniProt O94953); test: Inhibition of human KDM4B (1 to 347 residues) catalytic domain measured formaldehyde dehydrogenase (FDH)-coupled fluorescence assay
T1 sequence (O94953 whole entry): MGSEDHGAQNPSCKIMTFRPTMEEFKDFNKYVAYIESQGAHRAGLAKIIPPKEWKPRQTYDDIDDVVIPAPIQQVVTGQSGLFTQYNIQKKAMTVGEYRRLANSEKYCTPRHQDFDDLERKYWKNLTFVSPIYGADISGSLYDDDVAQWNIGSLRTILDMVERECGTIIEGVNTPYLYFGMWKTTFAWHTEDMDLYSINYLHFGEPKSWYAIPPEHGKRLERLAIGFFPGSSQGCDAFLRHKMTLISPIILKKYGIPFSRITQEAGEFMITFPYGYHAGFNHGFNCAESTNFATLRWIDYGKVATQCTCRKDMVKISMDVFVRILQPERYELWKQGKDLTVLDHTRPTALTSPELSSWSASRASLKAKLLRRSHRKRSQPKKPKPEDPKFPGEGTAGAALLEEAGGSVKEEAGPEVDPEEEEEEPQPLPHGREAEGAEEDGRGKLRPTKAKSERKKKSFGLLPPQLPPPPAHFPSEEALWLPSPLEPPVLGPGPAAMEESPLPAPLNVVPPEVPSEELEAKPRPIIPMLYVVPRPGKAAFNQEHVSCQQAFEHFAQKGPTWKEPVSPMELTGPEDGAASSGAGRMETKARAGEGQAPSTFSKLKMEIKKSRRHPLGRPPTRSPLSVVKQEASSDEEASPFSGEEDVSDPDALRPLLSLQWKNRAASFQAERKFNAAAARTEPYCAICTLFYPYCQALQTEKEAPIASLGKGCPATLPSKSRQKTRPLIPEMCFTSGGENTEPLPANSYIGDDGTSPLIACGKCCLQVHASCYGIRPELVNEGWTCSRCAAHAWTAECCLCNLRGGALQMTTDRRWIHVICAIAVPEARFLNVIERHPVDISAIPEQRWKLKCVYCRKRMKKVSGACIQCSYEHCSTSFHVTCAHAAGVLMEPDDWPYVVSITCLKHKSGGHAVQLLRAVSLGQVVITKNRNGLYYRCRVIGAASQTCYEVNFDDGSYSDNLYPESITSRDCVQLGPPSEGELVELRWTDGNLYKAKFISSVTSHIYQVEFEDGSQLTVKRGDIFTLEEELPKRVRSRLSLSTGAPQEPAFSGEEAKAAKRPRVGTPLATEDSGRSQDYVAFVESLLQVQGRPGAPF

[2] = target: T2, Lysine-specific demethylase 4D (Homo sapiens, UniProt Q6B0I6); test: Inhibition of human KDM4D (1 to 378 residues) catalytic domain measured formaldehyde dehydrogenase (FDH)-coupled fluorescence assay
T2 sequence (Q6B0I6 whole entry): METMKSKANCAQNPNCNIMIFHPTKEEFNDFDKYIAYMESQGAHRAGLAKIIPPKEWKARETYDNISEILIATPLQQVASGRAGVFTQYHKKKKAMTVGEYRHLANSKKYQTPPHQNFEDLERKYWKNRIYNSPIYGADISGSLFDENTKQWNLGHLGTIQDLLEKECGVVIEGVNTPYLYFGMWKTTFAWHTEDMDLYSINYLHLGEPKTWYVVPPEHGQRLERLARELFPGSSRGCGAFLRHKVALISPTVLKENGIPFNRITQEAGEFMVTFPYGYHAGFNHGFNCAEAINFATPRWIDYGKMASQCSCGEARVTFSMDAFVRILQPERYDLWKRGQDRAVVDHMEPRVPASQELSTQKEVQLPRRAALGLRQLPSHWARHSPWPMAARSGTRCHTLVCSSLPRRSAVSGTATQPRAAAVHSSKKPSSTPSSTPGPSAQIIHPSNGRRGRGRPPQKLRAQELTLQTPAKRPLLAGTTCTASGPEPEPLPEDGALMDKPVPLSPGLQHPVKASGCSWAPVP

- IC50 [1]: 4 µM
- IC50 [2]: 4 µM
Compound: COC(=O)Cc1cc(O)n(-c2nc3ccccc3[nH]2)n1
